System: transgenic mice expressing agouti specifically in adipocytes under the control of the aP2 promoter
Assay: Example 2: weight, fat pad and muscle mass after six weeks on diets including fresh whey products
Format: in vivo
Settings: Example 2, FIG. 11, 1 = Ad Lib, 2 = loCa, 3 = milk, 4 = fresh whey protein, 5 = casein, 6 = soy, 7 = fresh whey mineral, 8 = fresh whey mineral/ACE
Excerpt: The same animals were used as in Example 1. […] All diets had 25% fat (lard+soy oil), with sucrose as sole carbohydrate and the proteins indicated as the sole protein source. Group 1 continued for 6 weeks on the above diet ad libitum. Groups 2-8 continued for six weeks on a restricted diet (70% of the ad libitum energy intake). […] Group 8 used a fresh whey mineral isolate with a whey-derived ACE-inhibitor (e.g., BIPRO). During the six weeks, body weight, food intake and core temperature were measured weekly. […] Specifically, core temperature was monitored weekly as an indirect metabolic index using a thermocouple, and fasting insulin (by radioimmunoassay), leptin (by radioimmunoassay) and glucose (by glucose oxidase) levels were assessed at baseline and at weeks 2, and 6. At the conclusion of the study, all mice were sacrificed under isofluorane anaesthesia and individual subcutaneous and visceral fat depots were excised and weighed for comparison of fat accumulation among the groups and assessment of adipocyte size and number via a Coulter Counter method. Aliquots of adipose tissue were then immediately frozen in liquid nitrogen for subsequent study of gene expression.

## O=C([O-])[O-].[Ca+2] [calcium carbonate]
  gastrocnemius muscle mass (most to least), Benefit Ranking: did not modify or attenuate this decrease
